ChEMBL document CHEMBL1201862, “PubChem BioAssay data set” (2004)
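Five compound concentrations were applied to cells in 96-well plates for 48 hours; endpoints were derived by simple linear interpolation of the resulting dose-response curve. GI50 marks 50% less growth.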 Active and inactive are the calls of the source. Cut-off read from the data, not from the text of the source: active = GI50 up to about 1.1 µM and inactive = higher.

Key:
Experiment in all cases: NCI anticancer screen, dose series, 48 h
DU-145 = system: DU-145
UACC-62 = system: UACC-62
NCI-H522 = system: NCI-H522
SF-268 = system: SF-268
NCI/ADR-RES = system: NCI/ADR-RES
HCT-15 = system: HCT-15
U-251 = system: U-251
MCF7 = system: MCF7
IGROV-1 = system: IGROV-1
SF-539 = system: SF-539
HT-29 = system: HT-29
HL-60 = system: HL-60
CAKI-1 = system: CAKI-1
MDA-N = system: MDA-N
SF-295 = system: SF-295
HCC 2998 = system: HCC 2998
RXF 393 = system: RXF 393
PC-3 = system: PC-3
SNB-75 = system: SNB-75

Row | Structure (SMILES) | GI50 (DU-145) | GI50 (UACC-62) | GI50 (NCI-H522) | GI50 (SF-268) | GI50 (NCI/ADR-RES) | GI50 (HCT-15) | GI50 (U-251) | GI50 (MCF7) | GI50 (IGROV-1) | GI50 (SF-539) | GI50 (HT-29) | GI50 (HL-60) | GI50 (CAKI-1) | GI50 (MDA-N) | GI50 (SF-295) | GI50 (HCC 2998) | GI50 (RXF 393) | GI50 (PC-3) | GI50 (SNB-75)
1 | NC1CCCCC1NCCNC1CCCCC1N (configuration not stated) | > 100 µM (inactive) | > 100 µM (inactive) | > 100 µM (inactive) | > 100 µM (inactive) | > 100 µM (inactive) | > 100 µM | 30.5 µM (inactive) | 45.9 µM (inactive) | 75.7 µM (inactive) | > 100 µM (inactive) | 17.7 µM (inactive) | > 100 µM (inactive) | 82.4 µM (inactive) | > 100 µM (inactive) | > 100 µM (inactive) | 32.8 µM (inactive) | > 100 µM (inactive) | > 100 µM (inactive) | –
2 | COc1cc([C@H]2c3cc(O)c(OC)cc3C[C@]3(O)[C@@H]2CO[C@@H]3O)ccc1O | > 100 µM (inactive) | > 100 µM (inactive) | > 100 µM (inactive) | > 100 µM (inactive) | > 100 µM (inactive) | > 100 µM | > 100 µM (inactive) | > 100 µM (inactive) | > 100 µM (inactive) | > 100 µM (inactive) | > 100 µM (inactive) | > 100 µM (inactive) | > 100 µM (inactive) | > 100 µM (inactive) | > 100 µM (inactive) | > 100 µM (inactive) | – | > 100 µM (inactive) | > 100 µM (inactive)
3 | CCOC(=O)/C=C(/OCC)[C@@H]1C(C(=O)c2ccc(Cl)cc2)[C@H]1/C(=C\C(=O)OCC)OCC (some centres not stated) | > 100 µM (inactive) | > 30.7 µM (inactive) | > 45.2 µM (inactive) | > 100 µM (inactive) | 29 µM (inactive) | > 100 µM | > 100 µM (inactive) | > 100 µM (inactive) | > 100 µM (inactive) | > 100 µM (inactive) | > 51.2 µM (inactive) | 5.87 µM (inactive) | > 100 µM (inactive) | > 100 µM (inactive) | > 33.8 µM (inactive) | – | 96.8 µM (inactive) | > 30.5 µM (inactive) | 25.5 µM (inactive)
4 | COc1ccc(-c2nc3cc(F)ccc3s2)cc1O | 38 µM (inactive) | 30.7 µM (inactive) | 16.3 µM (inactive) | 28 µM (inactive) | 46.3 µM (inactive) | 3.05 µM | 30.1 µM (inactive) | 0.668 µM (active) | 3.81 µM (inactive) | 38.5 µM (inactive) | 26.4 µM (inactive) | 32.6 µM (inactive) | 23.3 µM (inactive) | 57.3 µM (inactive) | 22.5 µM (inactive) | 2.57 µM (inactive) | 36.8 µM (inactive) | 34.7 µM (inactive) | –
5 | CC1(C)CC(=O)c2c(N)n[nH]c2C1 | > 100 µM (inactive) | > 100 µM (inactive) | > 100 µM (inactive) | – | > 100 µM (inactive) | – | > 100 µM (inactive) | > 100 µM (inactive) | > 100 µM (inactive) | > 100 µM (inactive) | > 100 µM (inactive) | > 100 µM (inactive) | > 100 µM (inactive) | > 100 µM (inactive) | > 100 µM (inactive) | > 100 µM (inactive) | > 100 µM (inactive) | > 100 µM (inactive) | > 100 µM (inactive)
6 | CCOc1ccc(N2C(=O)NC3(c4ccccc4)N(C)C(=O)N(C)C23c2ccccc2)cc1 (configuration not stated) | > 100 µM (inactive) | 86.3 µM (inactive) | 33.9 µM (inactive) | – | 63.1 µM (inactive) | – | > 100 µM (inactive) | 46.2 µM (inactive) | > 100 µM (inactive) | > 100 µM (inactive) | 94.2 µM (inactive) | 75.2 µM (inactive) | > 100 µM (inactive) | 62.4 µM (inactive) | 97.3 µM (inactive) | – | 66.4 µM (inactive) | 41 µM (inactive) | 12.4 µM (inactive)
7 | C[N+]1(C)CCOC(O)(c2ccccc2)C1 (configuration not stated) | > 100 µM (inactive) | > 100 µM (inactive) | > 100 µM (inactive) | > 100 µM (inactive) | > 100 µM (inactive) | > 100 µM | > 100 µM (inactive) | > 100 µM (inactive) | > 100 µM (inactive) | > 100 µM (inactive) | > 100 µM (inactive) | > 100 µM (inactive) | > 100 µM (inactive) | > 100 µM (inactive) | > 100 µM (inactive) | – | > 100 µM (inactive) | > 100 µM (inactive) | > 100 µM (inactive)
8 | NC1(C(=O)O)CCCC1C(=O)O (configuration not stated) | > 100 µM (inactive) | > 100 µM (inactive) | > 100 µM (inactive) | > 100 µM (inactive) | > 100 µM (inactive) | > 100 µM | > 100 µM (inactive) | > 100 µM (inactive) | > 100 µM (inactive) | > 100 µM (inactive) | > 100 µM (inactive) | > 100 µM (inactive) | > 100 µM (inactive) | > 100 µM (inactive) | > 100 µM (inactive) | – | > 100 µM (inactive) | > 100 µM (inactive) | > 100 µM (inactive)
9 | OCC1OC(O[C@H]2CN3[C@H](O)[C@@H](O)[C@H](O)[C@H]3C2O)C(O)C(O)C1O (some centres not stated) | > 100 µM (inactive) | > 100 µM (inactive) | > 100 µM (inactive) | > 100 µM (inactive) | > 100 µM (inactive) | > 100 µM | > 100 µM (inactive) | > 100 µM (inactive) | > 100 µM (inactive) | > 100 µM (inactive) | > 100 µM (inactive) | > 100 µM (inactive) | > 100 µM (inactive) | > 100 µM (inactive) | > 100 µM (inactive) | > 100 µM (inactive) | > 100 µM (inactive) | > 100 µM (inactive) | –
10 | COc1ccc(C)cc1NC(=S)C#N | > 100 µM (inactive) | 34.4 µM (inactive) | – | 27.5 µM (inactive) | 27.4 µM (inactive) | 27.5 µM | > 100 µM (inactive) | 32.2 µM (inactive) | – | 33.1 µM (inactive) | 30.8 µM (inactive) | > 100 µM (inactive) | > 100 µM (inactive) | > 100 µM (inactive) | 31.9 µM (inactive) | 44.6 µM (inactive) | 28.1 µM (inactive) | 26.4 µM (inactive) | 25.1 µM (inactive)
11 | Cc1cccc(/C=N/NC(=S)N2CCCC2)n1 | 0.373 µM (active) | 0.296 µM (active) | 0.0458 µM (active) | 0.251 µM (active) | 0.166 µM (active) | 0.138 µM | 0.366 µM (active) | 2.91 µM (inactive) | 0.822 µM (active) | 0.479 µM (active) | 0.0528 µM (active) | 0.0559 µM (active) | 0.197 µM (active) | 0.417 µM (active) | 0.266 µM (active) | 0.78 µM (active) | – | 0.346 µM (active) | 2.95 µM (inactive)
12 | c1cc(-c2ccc(-c3ccc(-c4ccc(-c5ccncc5)o4)cc3)o2)ccn1 | 15 µM (inactive) | 17.9 µM (inactive) | 15.3 µM (inactive) | 20.7 µM (inactive) | 31.2 µM (inactive) | 15.1 µM | 17.5 µM (inactive) | 18.8 µM (inactive) | 19.1 µM (inactive) | – | 11.8 µM (inactive) | 18.5 µM (inactive) | 21.4 µM (inactive) | 16.7 µM (inactive) | 15 µM (inactive) | 18.2 µM (inactive) | > 100 µM (inactive) | 18.7 µM (inactive) | 18.9 µM (inactive)
